Values quoted from earlier work, collected in US20240052003A1, “COMPOSITIONS COMPRISING PEDF-DERIVED SHORT PEPTIDES (PDSP) AND USES THEREOF” (BRIM Biotechnology, Inc., priority 2019, published 2024).

Test system: eye
Settings: ocular application

NC(=O)c1cccnc1 [nicotinamide]
Eye irritation: may cause eye irritation
